Legend:
CYP1A2 = biological target: T1, CYP1A2 (Homo sapiens, UniProt P05177); assay: Human liver microsome CYP inhibition assay, CYP1A2; assay type: in vitro ADME; settings: role: inhibitor; human liver microsomes, probe substrate; read-out: CYP1A2 half maximal inhibitory concentration IC50
T1 construct: Mixed human liver microsomes (HLM) were purchased from Corning Inc; tissue Corning Inc; host or cells: mixed human liver microsomes (HLM)
T1 sequence (P05177 1-516): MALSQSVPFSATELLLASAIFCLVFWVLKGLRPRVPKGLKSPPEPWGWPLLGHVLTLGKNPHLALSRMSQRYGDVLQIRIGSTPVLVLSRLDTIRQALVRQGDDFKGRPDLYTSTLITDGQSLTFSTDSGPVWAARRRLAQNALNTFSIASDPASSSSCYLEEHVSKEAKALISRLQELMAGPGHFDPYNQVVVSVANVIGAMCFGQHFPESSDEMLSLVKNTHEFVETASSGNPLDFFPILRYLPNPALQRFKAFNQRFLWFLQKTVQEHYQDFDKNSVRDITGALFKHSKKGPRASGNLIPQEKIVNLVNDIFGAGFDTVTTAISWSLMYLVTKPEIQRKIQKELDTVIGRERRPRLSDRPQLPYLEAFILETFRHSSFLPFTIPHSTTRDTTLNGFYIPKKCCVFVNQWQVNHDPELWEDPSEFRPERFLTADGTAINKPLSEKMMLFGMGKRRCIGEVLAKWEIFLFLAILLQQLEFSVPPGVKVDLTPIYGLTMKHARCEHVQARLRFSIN
Protocol: (§1) Experimental objective: To evaluate the inhibitory activity of the test substance on human liver microsomal cytochrome P450 isoenzymes (CYP1A2, CYP2C9, CYP2C19, CYP2D6, CYP3A4) using a 5-in-1 probe substrate for CYP isoenzymes.
(§2) Mixed human liver microsomes (HLM) were purchased from Corning Inc. (Steuben, New York, USA) and stored at temperatures below −70° C. prior to use.
(§3) The working solution of the test substance, which had been diluted to a series of concentrations, was added to an incubation system containing human liver microsomes, probe substrates, and auxiliary factors of the circulatory system. A control containing solvent but no test substance served as an enzyme activity control (100%). The concentration of metabolites produced from probe substrates in the samples was determined using Liquid Chromatography-Tandem Mass Spectrometry (LC-MS/MS) method. Non-linear regression analysis of the average percentage activity of the test substance against its concentration was conducted using SigmaPlot (V.11). The IC50 values were calculated using a three-parameter or four-parameter inverse log equation.

CYP2C19 = biological target: T2, CYP2C19 (Homo sapiens, UniProt P33261); assay: Human liver microsome CYP inhibition assay, CYP2C19; assay type: in vitro ADME; settings: role: inhibitor; human liver microsomes, probe substrate; read-out: CYP2C19 half maximal inhibitory concentration IC50
T2 construct: Mixed human liver microsomes (HLM) were purchased from Corning Inc; tissue Corning Inc; host or cells: mixed human liver microsomes (HLM)
Protocol: as §1, §2, §3

CYP3A4 = biological target: T3, CYP3A4 (Homo sapiens, UniProt P08684); assay: Human liver microsome CYP inhibition assay, CYP3A4; assay type: in vitro ADME; settings: role: inhibitor; human liver microsomes, probe substrate; read-out: CYP3A4 half maximal inhibitory concentration IC50
T3 construct: Mixed human liver microsomes (HLM) were purchased from Corning Inc; tissue Corning Inc; host or cells: mixed human liver microsomes (HLM)
Protocol: as §1, §2, §3

[1] = Plasma protein binding rate test, cynomolgus monkey (equilibrium dialysis); assay type: in vitro ADME; settings: 37° C., read-out: Plasma protein binding rate (%) in cynomolgus monkeys (converted)
Description: The sample was thoroughly mixed.

CYP2D6 = biological target: T4, CYP2D6 (Homo sapiens, UniProt P10635); assay: Human liver microsome CYP inhibition assay, CYP2D6; assay type: in vitro ADME; settings: role: inhibitor; human liver microsomes, probe substrate; read-out: CYP2D6 half maximal inhibitory concentration IC50
T4 construct: Mixed human liver microsomes (HLM) were purchased from Corning Inc; tissue Corning Inc; host or cells: mixed human liver microsomes (HLM)
Protocol: as §1, §2, §3

[2] = In vivo pharmacokinetic study in cynomolgus monkeys; parameters: species or system cynomolgus monkey; settings: cynomolgus monkey, plasma, male cynomolgus monkeys, oral 1 mg/kg
human CYP11B2 = biological target: T5, human CYP11B2 (Homo sapiens, UniProt P19099); assay: In vitro activity assay of monoclonal cells overexpressing human CYP11B2; assay type: cell-based; settings: G402 cells overexpressing human CYP11B2; substrate 11-deoxycorticosterone; 16 hours; aldosterone by LCMS/MS
T5 construct: expressed in transfected cells; host or cells: human renal leiomyoma G402 cell line (monoclonal cells overexpressing human CYP11B2)
T5 sequence (P19099 25-503): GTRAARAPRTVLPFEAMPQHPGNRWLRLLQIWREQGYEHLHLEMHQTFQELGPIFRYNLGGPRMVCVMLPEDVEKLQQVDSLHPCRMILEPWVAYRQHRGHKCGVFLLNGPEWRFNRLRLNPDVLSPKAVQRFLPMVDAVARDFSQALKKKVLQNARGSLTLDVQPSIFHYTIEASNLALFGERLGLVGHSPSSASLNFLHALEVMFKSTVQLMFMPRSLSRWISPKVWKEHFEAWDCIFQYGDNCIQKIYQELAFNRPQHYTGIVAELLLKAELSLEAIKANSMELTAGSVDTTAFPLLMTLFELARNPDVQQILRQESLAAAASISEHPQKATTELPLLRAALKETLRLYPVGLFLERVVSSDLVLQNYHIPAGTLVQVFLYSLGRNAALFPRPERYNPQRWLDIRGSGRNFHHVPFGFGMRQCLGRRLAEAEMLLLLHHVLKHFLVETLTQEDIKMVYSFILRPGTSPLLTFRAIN
Protocol: The human renal leiomyoma G402 cell line overexpressing human CYP11B2 was selected to serve as a compound activity screening system.
• 2) Compound details: The test compound was prepared as a 10 μM working concentration using DMSO.
Day 1: Cells were digested, and human renal leiomyoma G402 cells overexpressing human CYP11B2 were resuspended to 1×10^5 cells/mL, with 100 μL seeded into a 96-well plate.
Day 2: The medium was replaced with DMEM/F12 containing 2.5% charcoal-stripped fetal bovine serum; test compounds were added: 5 μL of test compound was added to the cell culture medium to achieve final concentrations of 10000, 2500, 625, 156.25, 39.06, 9.77, 2.44, 0.61, 0.15, and 0 nM (with a DMSO content of 0.1%).
After one hour, the substrate was added: 30 mM 11-deoxycorticosterone was diluted 1500-fold with culture medium, and 5 μL was dispensed per well to achieve a final concentration of […], followed by incubation for 16 hours.
Day 3: The cell supernatant was collected and added to 200 μL of a methanol solution containing internal standards (internal standards: 35 ng/mL ketoprofen or 7.5 ng/mL carbamazepine or 5 ng/mL diphenhydramine or 10 ng/mL tolbutamide). The mixture was vortexed and centrifuged (4000×g, 4° C., 5 minutes). Then, 100 μL of the supernatant was taken and mixed with 100 μL of pure water. The mixture was centrifuged (4000 g, 4° C., 15 min), and the supernatant was analyzed by ESI-LCMS/MS. • 4) Data analysis:
Ratio=Aldosterone peak area/Internal standard peak area
Control activity %=(Ratio test compound/Ratio DMSO)×100%
“Ratio test compound” represents the Ratio values at different concentrations of the test compound.
“Ratio DMSO” represents the Ratio value without the addition of the test compound. • X=Log (compound concentration) • Y=Control activity %
The IC50 of the test compound was determined by fitting to a nonlinear regression equation using XLfit 5.5.0.

T3 sequence (P08684 whole entry): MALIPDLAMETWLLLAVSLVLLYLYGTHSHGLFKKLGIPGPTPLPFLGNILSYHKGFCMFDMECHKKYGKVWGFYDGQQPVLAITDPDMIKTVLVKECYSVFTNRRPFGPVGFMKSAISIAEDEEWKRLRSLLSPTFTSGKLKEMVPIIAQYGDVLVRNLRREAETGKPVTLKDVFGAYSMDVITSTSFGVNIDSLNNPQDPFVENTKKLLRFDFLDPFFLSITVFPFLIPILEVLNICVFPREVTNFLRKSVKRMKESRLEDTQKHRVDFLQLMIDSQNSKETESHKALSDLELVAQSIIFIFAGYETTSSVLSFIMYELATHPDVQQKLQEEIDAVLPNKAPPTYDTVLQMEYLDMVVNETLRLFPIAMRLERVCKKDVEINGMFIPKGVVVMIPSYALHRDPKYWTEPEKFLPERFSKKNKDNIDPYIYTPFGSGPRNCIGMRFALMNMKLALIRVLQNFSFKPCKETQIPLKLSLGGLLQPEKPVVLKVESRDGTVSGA
T2 sequence (P33261 whole entry): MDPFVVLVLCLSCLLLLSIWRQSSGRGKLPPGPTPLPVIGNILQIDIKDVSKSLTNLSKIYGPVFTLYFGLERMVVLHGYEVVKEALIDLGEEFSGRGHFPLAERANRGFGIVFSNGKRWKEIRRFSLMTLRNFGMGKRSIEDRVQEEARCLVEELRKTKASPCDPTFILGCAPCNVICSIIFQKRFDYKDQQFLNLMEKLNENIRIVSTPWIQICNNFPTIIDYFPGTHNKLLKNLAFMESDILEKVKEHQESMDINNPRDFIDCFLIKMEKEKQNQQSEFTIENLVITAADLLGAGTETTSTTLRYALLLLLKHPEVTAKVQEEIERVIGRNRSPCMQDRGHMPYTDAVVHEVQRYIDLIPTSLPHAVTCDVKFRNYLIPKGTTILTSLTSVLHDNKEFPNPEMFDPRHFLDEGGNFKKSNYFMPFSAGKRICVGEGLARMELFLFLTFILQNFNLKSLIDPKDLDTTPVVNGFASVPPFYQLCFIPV
T4 sequence (P10635 whole entry): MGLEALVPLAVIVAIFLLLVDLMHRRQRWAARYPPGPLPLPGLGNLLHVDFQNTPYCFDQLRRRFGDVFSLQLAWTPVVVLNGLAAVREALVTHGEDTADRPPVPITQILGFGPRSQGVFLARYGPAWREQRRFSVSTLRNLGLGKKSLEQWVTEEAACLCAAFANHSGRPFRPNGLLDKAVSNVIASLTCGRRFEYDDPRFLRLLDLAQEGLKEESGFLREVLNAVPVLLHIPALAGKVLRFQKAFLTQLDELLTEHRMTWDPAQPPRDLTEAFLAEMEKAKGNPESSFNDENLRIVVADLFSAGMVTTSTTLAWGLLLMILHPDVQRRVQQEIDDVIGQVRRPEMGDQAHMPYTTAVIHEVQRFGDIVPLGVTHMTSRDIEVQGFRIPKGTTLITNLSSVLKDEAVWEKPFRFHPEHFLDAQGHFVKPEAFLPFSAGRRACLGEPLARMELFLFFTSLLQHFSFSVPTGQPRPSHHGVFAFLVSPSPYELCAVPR

IC50 (CYP1A2): > 50 µM | IC50 (CYP2C19): > 50 µM | IC50 (CYP3A4): > 50 µM | fraction unbound at 4 h [1]: 0.451 | IC50 (CYP2D6): > 50 µM | bioavailability [2]: 67% | half-life [2]: 5.75 h | Cmax [2]: 1320 nM | AUC(0-t) at 24 h ([2]; read-out: AUC0-24 h): 10 µM·h | IC50 (human CYP11B2): 0.0142 µM
SMILES: CCC(=O)N[C@H]1CCOc2c(-c3ccc4c(c3)CCC(=O)N4C)cncc21 (single isomer, unassigned) [Compound 037]

Source: US20260317314A1, “NITROGEN-CONTAINING HETEROCYCLIC COMPOUND AND USE THEREOF” (JIANGSU DEYUAN PHARMACEUTICAL CO.,LTD., priority 2023, published 2026)
